Results: patent US8871280B1, “Compositions and methods for treating fungal activity in plants or soil” (The United States of America, as represented by the …, priority 2011, dated 2014)

What was measured:
[1] = test system: Rhizoctonia solani; assay: Poison food technique (contact action), mycelial growth inhibition in PDA; type: cell-based, Rhizoctonia solani AG-4, isolate Rs 23A; details: for PoisonB1 % inhibition: poison bed experiment 1; for PoisonB2 % inhibition: poison bed experiment 2
[2] = test system: Rhizoctonia solani; assay: Filter disk fumigation method, mycelial growth inhibition on PDA; type: cell-based, Rhizoctonia solani AG-4, isolate Rs 23A; details: for Fumig1 % inhibition: fumigation experiment 1; for Fumig2 % inhibition: fumigation experiment 2
[3] = test system: cucumber seeds; assay: Greenhouse assay of seed germination and phytotoxicity, soil treated with plant extract alone; details: cucumber, in vivo, 0.3 % of PE in soil (3000 ppm)
[4] = test system: Rhizoctonia solani; assay: Greenhouse suppression of damping off of cucumber seedlings in R. solani infested soil amended with plant extract; type: in vivo, Rhizoctonia solani AG-4, isolate Rs 23A
[5] = test system: Rhizoctonia solani; assay: Fungicidal vs fungistatic potential (regrowth of mycelial plugs on fresh PDA, 7 days); type: cell-based, Rhizoctonia solani AG-4, isolate Rs 23A

Cc1ccc(C(C)C)c(O)c1 [Thymol]
PoisonB1 % inhibition ([1]; amount oil 15 μL/20 mL plate): 100% | PoisonB2 % inhibition ([1]; amount oil 15 μL/20 mL plate): 42% | PoisonB1 % inhibition ([1]; amount oil 30 μL/20 mL plate): 100% | PoisonB2 % inhibition ([1]; amount oil 30 μL/20 mL plate): 100% | PoisonB1 % inhibition ([1]; amount oil 45 μL/20 mL plate): 100% | PoisonB2 % inhibition ([1]; amount oil 45 μL/20 mL plate): 100% | PoisonB1 % inhibition ([1]; amount oil 60 μL/20 mL plate): 100% | PoisonB2 % inhibition ([1]; amount oil 60 μL/20 mL plate): 100% | PoisonB1 % inhibition ([1]; amount oil 75 μL/20 mL plate): 100% | PoisonB2 % inhibition ([1]; amount oil 75 μL/20 mL plate): 100% | PoisonB1 % inhibition ([1]; amount oil 150 μL/20 mL plate): 100% | PoisonB2 % inhibition ([1]; amount oil 150 μL/20 mL plate): 100% | Fumig1 % inhibition ([2]; amount oil 15 μL/20 mL plate): 77% | Fumig2 % inhibition ([2]; amount oil 15 μL/20 mL plate): 91% | Fumig1 % inhibition ([2]; amount oil 30 μL/20 mL plate): 86% | Fumig2 % inhibition ([2]; amount oil 30 μL/20 mL plate): 93% | Fumig1 % inhibition ([2]; amount oil 45 μL/20 mL plate): 90% | Fumig2 % inhibition ([2]; amount oil 45 μL/20 mL plate): 94% | Fumig1 % inhibition ([2]; amount oil 60 μL/20 mL plate): 89% | Fumig1 % inhibition ([2]; amount oil 75 μL/20 mL plate): 93% | Fumig1 % inhibition ([2]; amount oil 150 μL/20 mL plate): 96% | Avg. seed germination (+ PE only) [3]: 8.00 | % Disease suppression (+ PE + R. solani) ([4]; cucumber damping off, soil amendment at 0.3% (v/w), four weeks after sowing): 27.75% | Avg. seed Germination (+ PE + R. solani) ([4]; cucumber, 12 seeds sown per pot, infested soil amended with 0.3% PE): 3.33 | Effect (fumigation) ([5]; amount oil 15 μL/20 mL plate): S | Effect (poison bed, contact action) ([5]; amount oil 15 μL/20 mL plate): S | Effect (fumigation) ([5]; amount oil 30 μL/20 mL plate): S | Effect (poison bed, contact action) ([5]; amount oil 30 μL/20 mL plate): S | Effect (fumigation) ([5]; amount oil 45 μL/20 mL plate): S | Effect (poison bed, contact action) ([5]; amount oil 45 μL/20 mL plate): S | Effect (fumigation) ([5]; amount oil 60 μL/20 mL plate): S | Effect (poison bed, contact action) ([5]; amount oil 60 μL/20 mL plate): S | Effect (fumigation) ([5]; amount oil 75 μL/20 mL plate): S | Effect (poison bed, contact action) ([5]; amount oil 75 μL/20 mL plate): S | Effect (fumigation) ([5]; amount oil 150 μL/20 mL plate): S | Effect (poison bed, contact action) ([5]; amount oil 150 μL/20 mL plate): S | Fungicidal vs fungistatic nature ([5]; in vitro, fumigation and contact action): fungistatic
